Laboratory results taken from ChEMBL document CHEMBL2057075, “Guanacastane-type diterpenoids with cytotoxic activity from Coprinus plicatilis” (Bioorg Med Chem Lett, 2012).
Active and inactive are the calls of the source. The rule behind the calls is not given here.

Columns and labels:
HepG2 [1] = test: Growth inhibition of human HepG2 cells at 20 uM after 72 hrs by MTT assay; format: functional, cell-based
HepG2 [2] = test: cells; details: Homo sapiens, HepG2, 72 h
Description: Cytotoxicity against human HepG2 cells after 72 hrs by MTT assay

HCT-116 = test: cells; details: Homo sapiens, HCT-116, 72 h
HeLa = test: cells; details: Homo sapiens, 72 h
Description: Cytotoxicity against human HeLa cells after 72 hrs by MTT assay

BGC-823 = test: Cytotoxicity against human BGC823 cells after 72 hrs by MTT assay; format: functional, cell-based; details: BGC-823, 72 h
U2OS = test: Cytotoxicity against human U2OS cells after 72 hrs by MTT assay; format: functional, cell-based
MDA-MB-231 = test: cells; details: Homo sapiens, MDA-MB-231, 72 h
Description: Cytotoxicity against human MDA-MB-231 cells after 72 hrs by MTT assay

IC50 (HepG2 [2]) [µM]	IC50 (HCT-116) [µM]	IC50 (HeLa) [µM]	IC50 (MDA-MB-231) [µM]	SMILES	growth inhibition (GI) (HepG2 [1])	IC50 (BGC-823) [µM]	IC50 (U2OS) [µM]
				CC(=O)O[C@H]1C(=O)[C@@H]2[C@H]3OCC4=C3[C@@](C)(CC[C@@H]4O)CC[C@]2(C)[C@H]1C(C)C	inactive		
2.3	1.2	5	6	CC(C)[C@H]1[C@@H](O)[C@@H](O)C2=C3OC(=O)C4=C3[C@@](C)(CC[C@@H]4O)CC[C@@]21C (relative stereo)	Active	2.4	19.3
25.9	38.9	> 50	> 50	CC(C)[C@H]1C(=O)CC2=C(O)C3=C(CO)[C@@H](O)CC[C@@]3(C)CC[C@@]21C (relative stereo)	Active	> 50	> 50
16.9	19.8	> 50	34.8	CC(C)[C@H]1[C@@H](O)C(=O)[C@@]2(O)[C@H]3OCC4=C3[C@@](C)(CC[C@@H]4O)CC[C@]12C (relative stereo)	Active	35.6	39.7
				CC(C)[C@H]1[C@@H](O)[C@H](O)C2=CC3=C(CO)CCC[C@@]3(C)CC[C@@]21C (relative stereo)	inactive		

SMILES	IC50 (HepG2 [2]) [µM]	IC50 (HCT-116) [µM]	IC50 (HeLa) [µM]	IC50 (MDA-MB-231) [µM]	growth inhibition (GI) (HepG2 [1])	IC50 (BGC-823) [µM]	IC50 (U2OS) [µM]
COc1cccc2c1C(=O)c1c(O)c3c(c(O)c1C2=O)C[C@@](O)(C(=O)CO)C[C@@H]3O[C@H]1C[C@H](N)[C@H](O)[C@H](C)O1 [DOXORUBICIN]	0.7	0.3	0.6			0.9	3.4
